Test results taken from US10251937B2, “Retro-inverso analogs of spadin display increased antidepressant effects” (MEDINCELL, priority 2014, dated 2019).
Square brackets hold non-standard residues; d marks the D form. Peptide text beside a SMILES is read from it.

What was measured:
[1] = molecular target: human-IKS current (Homo sapiens, UniProt P51787); assay: Cardiac IKs current, whole cell patch clamp in HEK-IKS cell line
Method: All electrophysiological recordings were performed in whole cell configuration of the patch clamp technique. Each current was evaluated by using a RK 400 patch clamp amplifier (Axon Instrument, USA), low-pass filtered at 3 kHz and digitized at 10 kHz using a 12-bit analog-to-digital converter digidata (1322 series, Axon Instrument, USA). All current amplitudes are expressed in current densities. Results were expressed as mean±standard error of the mean (SEM). […] The bath solution contained 150 mM NaCl, 5 mM KCl, 3 mM MgCl2, 1 mM CaCl2 and 10 mM HEPES adjusted to pH 7.4 with NaOH. The pipette solution contained 155 mM KCl, 3 mM MgCl2, 5 mM EGTA and 10 mM HEPES adjusted to pH 7.2 with KOH. […] All experiments were performed at room temperature (21-22° c.). Stimulation protocols and data acquisition were carried out using a microcomputer (Dell Pentium) with a commercial software and hardware (pClamp 8.2). Currents were recorded by voltage clamp steps to membrane potentials of −100 to +60 mV in 20 mV steps applied from a holding potential of −80 mV. Duration of depolarization pulses were 0.825 ms, and the pulse cycling rate was 5 sec. […] Cells were continuously superfused with a microperfusion system. […] IKS currents were activated by voltage clamp steps of membrane potentials from −100 to +100 mV in 20 mV steps applied from a holding potential of −80 mV. Tail currents were generated by repolarization to −40 mV. Duration of both depolarization and repolarization pulses were 2.4 s, and the pulse cycling rate was 10 s. […] The amplitudes of IKS and IKR currents were calculated at both the end of the first pulse and the peak of the tail pulse.

[2] = test system: C57Bl/6J mice; assay: Seizure induced by kainate; type: in vivo; details: for effect against epilepsy seizure triggered by kainate: kainate 25 mg/Kg
Method: Kainate solutions were prepared in a solution of 140 mM NaCl (saline solution). […] Mice (n=10 per group) were monitored during 2 h for onset and extent of seizures. Six levels of seizure severity were defined as follows: 1—immobility, 2—head/neck movements, 3—clonic unilateral activity, 4—clonic bilateral activity, 5—generalized convulsions, and 6—death. Seizure severity was blindly scored (Moha ou Maati, H. et al. A human TREK-1/HEK cell line: a highly efficient screening tool for drug development in neurological diseases. PLoS One 6, e25602, (2011)). The seizure index was calculated by averaging the points for seizure activity in each group (n=10 per treatment).

[3] = test system: C57Bl/6J mice; assay: Novelty Suppressed Feeding (NSF) test; type: in vivo; details: 10 μg/kg i.v. daily for 4 days, test on day 5
Method: Stock solutions were prepared of 2 mg/mL (10^-3M) in distilled water, and before injection spadin solution was diluted in NaCl 0.9% to obtain the different concentrations used for treatments. Corticosterone (Sigma-Aldrich, France) was dissolved in drinking water at the concentration of 3.5 mg/L in the presence of 4.5 g/L of beta-cyclodextrin. […] Fluoxetine (Sigma-Aldrich, France) was dissolved in drinking water at the dose of 80 mg/L and administered during 21 days. For i.p. administration, fluoxetine (TEVA Santé, France) was dissolved in NaCl 0.9% at a concentration of 0.75 mg/mL. The amount injected was 3 mg/kg. Spadin and analogues were administered by i.v. injection. For acute treatment, drugs were administered in a single 100 μL bolus 30 min prior to the beginning of the behavioral tests. For subchronic treatment drugs were injected during 4 consecutive days and behavioral tests were performed on day 5, without additional injection.
The NSF paradigm is a two day test protocol. Day one, mice were deprived from food. Day two mice were placed in a highly brightly lit area, in a plastic box (45×45×20 cm), with a floor covered with wooden bedding. The test was carried out during a 10 min period; during this time the latency to eat was measured. During the test a single pellet of food was placed in the center of the box, on a white platform.

[4] = molecular target: T1, TREK-1 channels (Homo sapiens, UniProt O95069); assay: TREK-1 current inhibition, whole cell patch clamp on h-TREK-1/HEK cell line; type: cell-based
T1 construct: expressed in transfected cells
T1 sequence (O95069 1-426): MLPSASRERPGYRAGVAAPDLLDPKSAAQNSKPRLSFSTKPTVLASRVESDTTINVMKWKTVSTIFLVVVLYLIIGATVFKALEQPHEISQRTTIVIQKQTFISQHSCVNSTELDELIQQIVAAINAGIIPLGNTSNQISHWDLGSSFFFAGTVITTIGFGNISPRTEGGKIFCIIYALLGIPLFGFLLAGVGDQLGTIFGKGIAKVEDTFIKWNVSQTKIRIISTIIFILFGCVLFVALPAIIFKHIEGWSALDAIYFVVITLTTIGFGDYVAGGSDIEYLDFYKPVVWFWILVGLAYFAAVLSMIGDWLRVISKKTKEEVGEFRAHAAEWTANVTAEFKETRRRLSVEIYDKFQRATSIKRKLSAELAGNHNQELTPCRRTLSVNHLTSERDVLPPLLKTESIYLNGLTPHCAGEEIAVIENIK
Method: The human-TREK-1/HEK293 cell line (h-TREK-1/HEK) (Moha ou Maati, H. et al. (2011). PloS one, 6 (10), e25602) and HEK-IKS cell line (Ducroq, J. et al, (2010) Br J Pharmacol, 159(1):93-101) were grown in the presence of 0.5 mg/mL G418 in Dulbecco's modified Eagle's medium supplemented with 10% (v/v) heat inactivated fetal bovine serum containing 1% (v/v) penicillin/streptomycin in an atmosphere of 95% air/5% CO2.
All electrophysiological experiments were performed on h-TREK-1/HEK cells seeded at a density of 20 000 cells/35-mm dish after 2-6 days of culture. All electrophysiological recordings were performed in whole cell configuration of the patch clamp technique. Each current was evaluated by using a RK 400 patch clamp amplifier (Axon Instrument, USA), low-pass filtered at 3 kHz and digitized at 10 kHz using a 12-bit analog-to-digital converter digidata (1322 series, Axon Instrument, USA). All current amplitudes are expressed in current densities. Results were expressed as mean±standard error of the mean (SEM). […] The bath solution contained 150 mM NaCl, 5 mM KCl, 3 mM MgCl2, 1 mM CaCl2 and 10 mM HEPES adjusted to pH 7.4 with NaOH. The pipette solution contained 155 mM KCl, 3 mM MgCl2, 5 mM EGTA and 10 mM HEPES adjusted to pH 7.2 with KOH. TREK-1 currents were evaluated in the presence of a cocktail of potassium channel inhibitors (K+ blockers: 3 mM 4-aminopyridine (4-AP), 10 mM tetraethylammonium (TEA), 10 μM glibenclamide, 100 nM apamin and 50 nM charybdotoxin). All experiments were performed at room temperature (21-22° c.). Stimulation protocols and data acquisition were carried out using a microcomputer (Dell Pentium) with a commercial software and hardware (pClamp 8.2). Currents were recorded by voltage clamp steps to membrane potentials of −100 to +60 mV in 20 mV steps applied from a holding potential of −80 mV. Duration of depolarization pulses were […], and the pulse cycling rate was 5 sec. TREK-1 current amplitudes were evaluated at the end of the stimulation pulses. Cells were continuously superfused with a microperfusion system. Inhibitory effects of spadin and analogs were performed on arachidonic acid pre-activated TREK-1 currents. Spadin and analogs were tested at the unique dose of 100 nM. For both Analog 3 (SEQ ID:4) and Analog 8 (SEQ ID:9) concentration-dependant inhibitions were performed by applying concentrations ranging between 1 nM to 1 μM. IKS currents were activated by voltage clamp steps of membrane potentials from −100 to +100 mV in 20 mV steps applied from a holding potential of −80 mV. Tail currents were generated by repolarization to −40 mV. Duration of both depolarization and repolarization pulses were 2.4 s, and the pulse cycling rate was 10 s. IKR currents were activated by voltage clamp steps of membrane potentials from −100 to +100 mV in 10 mV steps applied from a holding potential of […] and tail currents were generated by a repolarization to […]. Duration of both depolarization and repolarization pulses were 1 s, and the pulse cycling rate was 5 s. The amplitudes of IKS and IKR currents were calculated at both the end of the first pulse and the peak of the tail pulse.
Neuropharmacology 62, 278, (2012)) was used as reference.

[5] = 0 mV, in the presence of 10 μM, n=5

CC[C@@H](C)[C@@H](NC(=O)CNC(=O)[C@H](NC(=O)[C@@H](CO)NC(=O)[C@@H](Cc1c[nH]c2ccccc12)NC(=O)CNC(=O)[C@@H](CC(C)C)NC(=O)[C@@H](CCCNC(=N)N)NC(C)=O)C(C)C)C(=O)N1CCC[C@@H]1C(=O)NCC(=O)N[C@H](CO)C(=O)N[C@H](Cc1c[nH]c2ccccc12)C(=O)N[C@H](CCCNC(=N)N)C(=O)N1CCC[C@@H]1C(=O)N[C@H](CC(C)C)C(=O)N1CCC[C@@H]1C(=O)N[C@H](C)C(N)=O [Analog 3, Ac-rlGwsvGipGswrplpa-NH2] (Ac-[dR][dL]G[dW][dS][dV]G[dI][dP]G[dS][dW][dR][dP][dL][dP][dA]-NH2)
IKS tail current density [1, 5]: 8.33±2.06 pA/pF
IKs current density at the end of pulses [1, 5]: 17.58±4.03 pA/pF
effect on currents generated by IKS channels expressed in HEK cells ([1]; 10 μM): did not modify currents
effect against epilepsy seizure triggered by kainate ([2]; 1 μg/Kg i.v.): no protective effect
effect against epilepsy seizure triggered by kainate ([2]; 10 μg/Kg i.v.): important protective effect
mice among 10 that reached the two less severe stages of epilepsy seizures (immobility, head or neck movements) ([2]; 10 μg/Kg i.v., kainate 25 mg/Kg i.p.): two
latency to feed, NSF [3]: 143.88 ± 23.42 s
blockade effect on TREK-1 channel activity compared to spadin ([4]; 100 nM, n=10 to 12): increased blockade effect
higher affinity for TREK-1 channels than spadin ([4]; compared to spadin IC50): 6 fold
